Tests used:
Format in all cases: in vivo, rat
[1] = system: dopamine in the nucleus accumbens (Nacs); test: Microdialysis of dopamine in the Nacs after 7-day stress: basal, vanilla sugar meals, cocaine (Example 2); conditions: for protection from the neurochemical effects resulting from a repeated exposure to stress: Example 2, IMI 5 mg/kg IP BID or FLX 5 mg/kg IP/die for 8 days with 7-day stress; for Dopamine (max percentage increase) Meal 1 / Dopamine (max percentage increase) Meal 2: mean ± standard error of 10
Experimental: Sixty rats were divided in 6 groups of 10 animals each, as follows:
a) Control (Crt): the animals were administered physiological solution 1 ml/kg IP, BID for 8 days;
b) acetyl L-carnitine: the animals were administered acetyl L-carnitine 10 mg/kg IP, BID for 8 days;
c) Stress: the animals were exposed to the pre-test, they were tested for escape 24 hours later, and then they were exposed to the chronic stress protocol for 7 days, while receiving physiological solution (for 8 days);
d) acetyl L-carnitine+Stress: the animals were exposed to the pre-test, they were tested for escape 24 hours later, and then they were exposed to the chronic stress protocol for 7 days, while receiving acetyl L-carnitine 10 mg/kg IP, BID, for 8 days;
e) IMI+Stress: the animals were exposed to the pre-test, they were tested for escape 24 hours later, and then they were exposed to the chronic stress protocol for 7 days, while receiving IMI 5 mg/kg IP, BID for 8 days;
f) FLX+Stress: the animals were exposed to the pre-test, they were tested for escape 24 hours later, and then they were exposed to the chronic stress protocol for 7 days, while receiving FLX 5 mg/kg IP/die for 8 days.
On day 9, all the animals were implanted with dialysis probes in the Nacs; on day 10, the animals were dialysed.
The basal levels of dopamine were determined over 60 minutes.
At this point, the rats were offered 5 vanilla sugar pellets (Meal 1); 4 samples of dialysis fluid were taken over the next 60 minutes.
The rats were offered vanilla sugar one more time (Meal 2), and samples of dialysis fluid were taken over 60 minutes.
Finally, the rats were injected with cocaine 5 mg/kg IP, 0.1 ml in water and samples of dialysis fluid were taken over 60 minutes.

[2] = system: rats exposed to chronic stress; test: Escape test in rats exposed to unavoidable/chronic stress; conditions: for N0 of escapes After 8 days / N0 of escapes After stress + 3-week VAB training: ALCAR 10 mg/kg IP; for N0 of escapes After 8 days: BID or IMI 5 mg/kg BID plus chronic stress for 8 days; for N0 of escapes After stress + 3-week VAB training: BID or IMI 5 mg/kg BID, 8 days plus 3 weeks with stress on alternate days; for escape deficit induced by chronic stress: second experiment, end of 3-week training
Experimental: c) Stress: 10 rats were treated with physiological solution (1 ml/kg IP, BID) for 14 days. Then, the animals were exposed to the sequence of pre-test [with the pre-test, the animals were exposed to both unavoidable stress (electric shocks) of minimum intensity and duration, capable to induce a reliable modification of behaviour. Brain. Res. Protocols 7(1):11-20; 2001]; escape test [(also defined as “test”) carried out 24 hours after the pre-test, to assess the induced behaviour modification (Brain. Res. Protocols 7(1):11-20; 2001)]; Y- maze training and exposure to the chronic stress procedure on alternate days (maze one day, and stress the next day) for three weeks (Brain. Res. Protocols 7(1): 11-20; 2001), while continuing treatment with physiological solution;
d) acetyl L-carnitine+Stress: 10 rats were treated with acetyl L-carnitine (10 mg/kg, IP, BID) for 14 days. Then, animals were exposed to the sequence of: -pre-test; -test; -Y-maze training and simultaneously exposed to the chronic stress procedure on alternate days (maze one day, and stress the next day) for three weeks, while continuing treatment with acetyl L-camitine.
At the end of the VAB training, all the animals exposed to stress underwent the escape test (Brain. Res. Protocols 7(1):11-20; 2001).
(§1) f) Stress+VAB: the animals were exposed to the pre-test. Twenty-four hours later they were subjected to the escape test, and then exposed to the chronic stress procedure for 7 days. On day 9, they started their training in the Y-maze while exposed to stress on alternate days;
(§2) g) acetyl L-carnitine+Stress+VAB: the animals were exposed to the pre-test. Twenty-four hours later they underwent the escape test. Then, they were exposed to the protocol of chronic stress for 7 days, while receiving acetyl L-carnitine 10 mg/kg IP, BID for 8 days. On day 9, the rats started their VAB training in the Y-maze and exposure to stress on alternate days, while continuing treatment with the acetyl L-carnitine for 3 weeks;
(§3) h) IMI+Stress+VAB: the animals were exposed to the pre-test. Twenty-four hours later, they underwent the escape test, and then they were exposed to the chronic stress protocol for 7 days while receiving imipramine 5 mg/kg IP, BID for 8 days. On day 9, the rats started their training in the Y-maze and exposure to stress on alternate days, while continuing with IMI for 3 weeks.
At the end of the training period, all the animals underwent the escape test.

[3] = system: rats exposed to chronic stress; test: Acquisition of vanilla sugar-sustained appetitive behaviour (VAB) in the Y-maze during chronic stress; conditions: for No. of correct choices: rats, ALCAR 10 mg/kg IP, BID or IMI 5 mg/kg BID started after pre-test, chronic stress 8 days, then 3-week Y-maze training with stress on alternate days, mean ± standard error; for protection from negative effect of chronic stress on VAB acquisition: second experiment: chronic administration during exposure to stress and training in the Y-maze
From the text: The anhedonia model is based on the observation that the fact of being exposed to a repeated unavoidable stress prevents the development of an appetitive behaviour induced and maintained by a highly palatable food (vanilla sugar) in rats fed ad libitum (Behav. Pharmacol. 8:619-628, 1997). […]
The Y-maze was made up of three wings. The vanilla sugar for the acquisition of the appetitive behaviour was in one of the two diverging wings (VAB training, 3 weeks).
e) VAB: the physiological solution was administered to the animals (1 ml/kg IP, BID) for 8 days, and then the rats were trained in the Y-maze for VAB acquisition while continuing the treatment with physiological solution for 3 weeks;
as §1, §2, §3

[4] = system: dopamine in the nucleus accumbens (Nacs); test: Microdialysis of extraneuronal dopamine in the nucleus accumbens after VAB training (Example 1); conditions: rats trained in the Y-maze during chronic stress exposure and treated; for dopamine in the Nacs after the acute administration of cocaine vs control animals (FIGS. 3 and 4): cocaine 5 mg/kg IP
Experimental: Two days later, animals were implanted with microdialysis probes into the nucleus accumbens (Nacs) (Brain. Res. Protocols 5(1):16-24: 2000) and underwent dialysis on the next day.
Once the dopamine basal level had been reached, the rats were administered a single dose of cocaine 5 mg/kg IP in 0.1 ml volume of water, and dialysed within the next 60 minutes.

[5] = rats exposed to chronic stress for 7 days during ALCAR 10 mg/kg IP BID, IMI 5 mg/kg IP BID or FLX 5 mg/kg IP/die, 8 days, Nacs

SMILES	protection from the neurochemical effects resulting from a repeated exposure to stress [1]	Dopamine (max percentage increase) Meal 1 [1, 5] [%]	Dopamine (max percentage increase) Meal 2 [1, 5] [%]	N0 of escapes After 8 days ([2]; rats, mean ± standard error)	N0 of escapes After stress + 3-week VAB training ([2]; rats, mean ± standard error)	escape deficit induced by chronic stress [2]	No. of correct choices [3]	protection from negative effect of chronic stress on VAB acquisition [3]	basal levels of extraneuronal dopamine in the Nacs vs control animals (FIGS. 3 and 4) [4]	dopamine in the Nacs after the acute administration of cocaine vs control animals (FIGS. 3 and 4) [4]	basal levels of dopamine in the Nacs vs control rats (FIGS. 5 and 6) ([1]; Example 2, 8-day treatment)	increase of dopamine in the Nacs after the acute administration of cocaine vs control rats ([1]; Example 2, 8-day treatment, cocaine 5 mg/kg IP)	increase in the output of dopamine after two consecutive vanilla sugar meals ([1]; rats exposed to stress and treated with acetyl L-carnitine, Nacs)	Dopamine (max percentage increase) Meal 1 ([1]; rats not exposed to stress, acetyl L-carnitine 10 mg/kg IP, BID 8 days, Nacs dialysate after first vanilla sugar meal) [%]	Dopamine (max percentage increase) Meal 2 ([1]; rats not exposed to stress, acetyl L-carnitine 10 mg/kg IP, BID 8 days, Nacs dialysate after second vanilla sugar meal) [%]	No. of escapes 24 hours after the pre-test ([2]; rats, acetyl L-carnitine 10 mg/kg IP, BID for 14 days before pre-test, mean ± standard error)	No. of escapes After training for VAB and exposure to stress ([2]; rats, acetyl L-carnitine 10 mg/kg IP, BID, 14-day pre-treatment continued during 3-week VAB training and chronic stress, mean ± standard error)	negative effect of chronic stress on VAB acquisition (FIGS. 1 and 2) ([3]; first experiment: 14-day pre-treatment 10 mg/kg IP BID, continued throughout training with chronic stress)	dopamine output levels in the Nacs vs control group [4]
CN(C)CCCN1c2ccccc2CCc2ccccc21 [IMI, imipramine, reference compound]	Neither the treatment with IMI nor the treatment with FLX were capable to protect	3.3 ± 2.3	4.1 ± 3.5	2.5 ± 1.1	24.8 ± 1.0	completely reversed	2.9 ± 1.2	protected the rats from the negative effect of chronic stress on VAB acquisition	significantly lower	significantly lower									
CNCCC(Oc1ccc(C(F)(F)F)cc1)c1ccccc1 (stereo not shown) [FLX, fluoxetine, reference compound]	Neither the treatment with IMI nor the treatment with FLX were capable to protect	4.6 ± 4.2	3.6 ± 4.0																
CC(=O)O[C@H](CC(=O)[O-])C[N+](C)(C)C [ALCAR, acetyl L-carnitine]		286.4 ± 16.4	276.7 ± 18.6	1.0 ± 0.5	22.4 ± 2.8	completely reversed	7.6 ± 0.5	fully protected the rats from negative effect of chronic stress on VAB acquisition	significantly higher	significantly higher	significantly higher	significantly higher	approx 300%	35.7 ± 1.8	6.8 ± 5.1	25.8 ± 2.5	26.4 ± 2.9	prevented such negative effect from occurring	superimposable to those observed in the control group

— US20060148896A1, “Use of an alkanoyl L-carnitine for the preparation of a medication to treat anhedonia” (Sigma-Tau Industrie Farmaceutiche Riunite S.p.A., priority 2001, published 2006)
